# Laboratory results from patent publication US12163169B2, “Inducible chimeric cytokine receptors” (Allogene Therapeutics, Inc., priority 2018, dated 2024).
# “Also recorded” adds a separate entry of the source.
# B1: CD8 SS-Myc-FKBP(F36V)-EpoR(237-338; L241G, L242P)-IFNAR2(310-515): inducible chimeric cytokine receptor (protein)
# chain: KKKVWDYNYDDESDSDTEAAPRTSGGGYTMHGLTVRPLGQASATSTESQLIDPESEEEPDLPEVDVELPTMPKDSPQQLELLSGPCERRKSPLQDPFPEEDYSSTEGSGGRITFNVDLNSVFLRVLDDEDSDDLEAPLMLSSHLEEMVDPEDPDNVQSNHLLASGEGTQPTFPSPSSEGLWSEDAPSDQSDTSESDVDLGDGYIMR
# Assays:
# STAT4 = STAT4 luciferase reporter assay comparing tyrosine kinase activating domains in HEK293 cells co-transfected with STAT4 (Example 5A); format: cell-based; conditions: for basal signaling: without ligand
# Text: For this study, several tyrosine kinase activating domains were compared using a otherwise identical inducible cytokine receptor design. The tyrosine effector domain consists of a STAT5-activating sequence from IL7R fused to a STAT4-activating sequence from IL12Rb2. Each construct contains a membrane-targeting motif (CD8 SS), a dimerization domain (FKBP(F36V)), a tyrosine kinase activating domain derived from either the EpoR, GP130, PrIR, GHR, GCSFR, or TPOR/MPLR receptors, and a tyrosine effector domain consisting of the IL7R(316-459) cytotail fused to the IL12Rb2(775-825) peptide. Chimeric cytokine receptors also include an epitope tag for detection (Myc). The following inducible chimeric cytokine receptors were tested in this study:
# HEK293 cells were transfected with constructs encoding the above inducible chimeric cytokine receptors, and a luciferase reporter for either STAT4 or STAT5. The luciferase reporters (Promega) encoded a luciferase under the control of either a STAT4 or STAT5 responsive element. As HEK293 cells lack STAT4, in wells transfected with the STAT4 reporter, a plasmid encoding constitutively-expressed STAT4 was transfected as well added. Transfected EpoR, GHR, and IL12Rb1+IL12Rb2 (the IL12 receptor) were used as positive controls. The ligand added to inducible chimeric cytokine receptors was AP1903. Epo was added to EpoR transfected cells, Growth Hormone to GHR transfected cells, and IL-12 to IL12 receptor transfected cells
# STAT5 [1] = assay: STAT5 luciferase reporter assay of small-molecule inducible Epo receptors in HEK293T cells (Example 2); format: cell-based; conditions: AP1903 added vs no ligand, FIG. 4
# Text: According to the construct name, receptors contain a membrane-targeting motif (CD8 signal sequence (CD8 SS) or myristoyl), a dimerization domain (FKBP(F36V) or mutants thereof), a portion of the EpoR that contains a transmembrane (EpoR(237-272)), a JAK2 binding motif (EpoR(273-338)), and/or a tyrosine effector domain (EpoR(339-508)). Constructs may also include epitope tags (Myc or V5) for western blot or flow analyses.
# Vectors encoding the inducible chimeric cytokine receptors were transfected into HEK293T cells along with a luciferase reporter for the STAT5 transcription factor (Promega E4651). The reporter vector consists of a firefly luficerase expressed under the control of a STAT5 responsive DNA element. Upon addition of erythropoietin (Epo), the erythropoietin receptor (EpoR) activates the JAK2 kinase which then phosphorylates tyrosines on the EpoR cytotail to generate binding sites for STAT5. […] Epo was added to samples with cells transfected with EpoR, and AP1903 was added to the samples with cells transfected with fusions of the EpoR to FKBP. No Epo or AP1903 was added to samples to assess baseline signaling. In FIG. 4, “ligand” is either Epo or AP1903.
# [2] = system: BCMA(1-54), TACI(1-165) and BAFFR(1-78) ectodomain chimeric cytokine receptors; assay: HEK293T Stat reporter assay of TNFR2 superfamily ectodomain receptors with soluble BAFF trimers (Example 14); format: cell-based; conditions: 5 hours post-treatment
# Text: To test if the panel of ligand inducers and ectodomains can be further extended beyond the AP1903-FKBP(F36V) pairing, we tested signaling in response to other multimeric ligand inducers. As the Tumor Necrosis Family (TNF) superfamily of ligands are trimers, they engage their respective receptors in a multimeric fashion. Therefore, we fused ectodomains derived from the TNFR2 superfamily receptors, such as BCMA(1-54), TACI(1-165) and BAFFR(1-78), to the transmembrane and signaling domains of our chimeric cytokine receptors, and tested signaling in response to soluble trimeric ligand. Briefly, 20,000 HEK293T cells were plated into each well of a poly-L-lysine-coated 96-well flat-bottom plate and allowed to adhere overnight. The chimeric cytokine receptor (2.5 ng), a Stat response element that drives Firefly Luciferase (100 ng; Promega) and Renilla Luciferase control reporter vector (1 ng; Promega) were mixed in a final volume of 5 uL in Opti-MEM (Gibco) (“DNA mix”). 0.3 uL Lipofectamine 2000 (Invitrogen) in 5 uL Opti-MEM was incubated at room temperature for 5 minutes and then added to the DNA mix. […] 24 hours after transfection, cells were either left untreated, or treated with soluble BAFF or APRIL trimers diluted in serum-free media, and Stat reporter activity was determined 5 hours post-treatment using the Dual-Glo Luciferase Assay System (Promega). […]
# CAR-T cells [3] = assay: Cytokine measurement of CAR-T cells on day 2 and day 8 (Example 7); format: cell-based, human; conditions: for cytokine release without any treatment: day 2 and 8 post production, FIG. 23, FIG. 24; for autoactivation (cytokine release in the absence of small molecule): no treatment
# Text: (§1) In this study, lentiviral (pLVX) constructs were generated comprising an SFFV promoter followed by a kozak sequence, the inducible chimeric cytokine receptor, a T2A sequence, and a chimeric antigen receptor. The chimeric antigen receptor was directed towards cells expressing EGFRvIII. For comparison, lentiviral constructs with either TagBFP or GoCART instead of the inducible chimeric cytokine receptor were used. GoCART consists of a myristoylation sequence followed by a portion of MyD88 and CD40 fused to two repeats of FKBP(F36V).
# (§2) The T cells were transduced with lentivirus 2 days after isolation, and 3 days later were FACS sorted by binding APC-labeled EGFRvIII. The sorted EGFRvIII+ cells were cultured until 14 days post isolation.
# Cytokines were measured on day 2 and day 8. AP1903 data is shown FIG. 20 and FIG. 21. All values were normalized to untreated TagBFP-expressing CAR-T Cells. […] The IFN-related tails do incur some cytokine release.
# Induction of cytokines at day 2 and 8 post production without any treatment was measured.
# CAR-T cells [4] = assay: Phenotyping of CAR-T cells at day 8 post production (Example 7); format: cell-based, human; conditions: for cell phenotype after growth with AP1903: FIG. 18, FIG. 19
# Text: as §1, §2
# At day 8 post production growth with AP1903 or IL2, cells were phenotyped.
# CAR-T cells [5] = assay: Live cell count and viability of EGFRvIII CAR-T cells grown with IL2, AP1903 or no treatment (Example 7); format: cell-based, human; conditions: for CAR-T cell growth with AP1903 (live cell count) / CAR-T cell viability with AP1903: EGFRvIII CAR-T cells; for CAR-T cell growth with AP1903 (live cell count): 8 days post production, FIG. 16; for CAR-T cell viability with AP1903: FIG. 17
# Text: as §1, §2
# At day 14, the 0.5e6 cells were resuspended in a 24-well plate, and grown with either IL2, AP1903, or no treatment for 8 days post production.
# STAT5 [6] = assay: STAT5 signaling by IL7Ra, IL2Rb and IFNAR2 derived cytotail fragments (Example 6, FIG. 11); format: cell-based; conditions: EpoR(237-338; L241G, L242P) tyrosine kinase activating domain, short (8 h) AP1903 treatment
# Procedure: In this study, IL2Rb, IL7R, and […] cytotails were analyzed to identify tyrosines sufficient for key aspects of signaling. For instance, a segment of IL2Rb containing the STAT5-interacting tyrosines Y418 and Y436 might retain STAT5 signaling, but may lose PI3K signaling as this requires Y364 of the IL2Rb cytotail. Inducible chimeric cytokine receptors comprising the IL7R, IL2Rb, and IFNAR2 tails may include one or more tyrosine motifs within the cytotails. Elimination of one or more portions of the tail (e.g., the IL12Rb2 tail) in some cases results in removal of negative regulatory motifs and stronger signaling.
# In this study, signaling by a variety of IL7Ra and IL2Rb derived fragments using the EpoR-based tyrosine kinase activating domain were tested. The following inducible chimeric cytokine receptors were tested in this study:
# Constructs that are plotted include tyrosine effector domains derived from the IL7R and IL2Rb cytotails.
molecule,measurement,setting,value
"CD8 SS-Myc-FKBP(F36V)-EpoR(237-338; L241G, L242P)-IL7R(316-459)-IL12Rb2(775-825): inducible chimeric cytokine receptor",basal signaling,STAT4; FIG. 9,lowest basal signaling
CD8 SS-Myc-FKBP(F36V)-GCSFR(614-710)-IL7R(316-459)-IL12Rb2(775-825): inducible chimeric cytokine receptor,signaling for STAT4,"STAT4; AP1903, FIG. 9",strongest signaling for STAT4
same,basal signaling,STAT4; FIG. 9,had basal signaling
"CD8 SS-Myc-FKBP(F36V)-EpoR(237-338; L241G, L242P)-IL12Rb2(775-825): inducible chimeric cytokine receptor",STAT4 signaling when used as a tyrosine effector domain,"STAT4; peptide containing Y800, see Examples 3 and 5",sufficient to provide STAT4 signaling
"CD8 SS-Myc-FKBP(F36V)-EpoR(237-508; L241G, L242P)-V5: inducible chimeric cytokine receptor",STAT5 reporter signaling with ligand,STAT5 [1],closest to the EpoR(1-508) positive control; also recorded: robust activity
"BAFF: soluble BAFF trimers, TNF superfamily ligand",Stat5 reporter activity,[2]; FIG. 37C,induced Stat5 and Stat4 activation
same,Stat4 reporter activity,[2]; FIG. 37D,induced Stat5 and Stat4 activation
GoCART: myristoylation sequence followed by a portion of MyD88 and CD40 fused to two repeats of FKBP(F36V); previously reported multimerizer [reference compound],cytokine release without any treatment,CAR-T cells [3],"GM-CSF, IL5, IL13, IL22, and MIP1a at day 2 and more so at day 8"
same,cytokine release with AP1903,"CAR-T cells [3]; day 2 and day 8, normalized to untreated TagBFP-expressing CAR-T Cells, FIG. 20, FIG. 21",robust cytokine release
same,autoactivation (cytokine release in the absence of small molecule),CAR-T cells [3]; day 2 and day 8,strongly so
same,cell phenotype after growth with AP1903,CAR-T cells [4],less stem cell memory and more effector memory
same,cell phenotype when grown further with IL2,CAR-T cells [4]; IL2,somewhat more differentiated
same,CAR-T cell growth with AP1903 (live cell count),CAR-T cells [5],slight growth
same,CAR-T cell viability with AP1903,CAR-T cells [5],higher viability with AP1903 comparable to IL2 treatment
"CD8 SS-Myc-FKBP(F36V)-EpoR(237-338; L241G, L242P)-IL7R(376-416, 424-459; Y456F): inducible chimeric cytokine receptor",STAT5 signaling of cytotail fragments,STAT5 [6],fully recreated
"CD8 SS-Myc-FKBP(F36V)-EpoR(237-338; L241G, L242P)-IL2Rb(393-433, 518-551): inducible chimeric cytokine receptor",STAT5 signaling of cytotail fragments,STAT5 [6],far greater signaling
"CD8 SS-Myc-FKBP(F36V)-EpoR(237-338; L241G, L242P)-IL2Rb(333-551): inducible chimeric cytokine receptor",cytokine release without any treatment,CAR-T cells [3],"release IL13 and some TNFa (day 2, FIG. 23) that diminishes by day 8"
same,autoactivation (cytokine release in the absence of small molecule),CAR-T cells [3]; day 2 and day 8,mildly autoactivating
same,CAR-T cell growth with AP1903 (live cell count),CAR-T cells [5],slight growth
"CD8 SS-Myc-FKBP(F36V)-EpoR(237-338; L241G, L242P)-IL7R(316-459): inducible chimeric cytokine receptor",cytokine release without any treatment,CAR-T cells [3],No cytokine release was observed
same,cell phenotype after growth with AP1903,CAR-T cells [4],more stem cell memory
same,CAR-T cell growth with AP1903 (live cell count),CAR-T cells [5],robust growth
same,CAR-T cell viability with AP1903,CAR-T cells [5],higher viability with AP1903 comparable to IL2 treatment
B1,IL-2 consumption,CAR-T cells [3]; Day 8 cytokine measurements,did not consume as much IL-2
same,cytokine release without any treatment,CAR-T cells [3],constitutively release small amounts of IL5
same,autoactivation (cytokine release in the absence of small molecule),CAR-T cells [3]; day 2 and day 8,mildly autoactivating
same,CAR-T cell counts on post-production day 5 and day 8,CAR-T cells [5]; FIG. 25,least growth
same,growth without signaling,"CAR-T cells [5]; no treatment, over a week, FIG. 22",some less growth
